Experimental data published in patent US20060160197A1 (priority 2004, published 2006).

Tests used:
Format in all cases: physicochemical
[1] = Example 12 reactive solvent extraction, 90% Alamine 336/10% toluene, 25° C.; details: pH 2 to 3
Method: (§1) A variety of analytical methods can be employed to analyze the reactants and products produced using the present methods include HPLC, GC, ion selective electrodes, MS, NMR, etc. HPLC was used to measure glycolic acid and various related products. Briefly, samples are diluted with water (as needed to be within HPLC detection range) and mixed 1:1 with 0.2 M n-propanol in water (HPLC internal standard). HPLC Analytical Method: (BioRad HPX 87H ion exclusion column (BioRad, Hercules, Calif.), 300 mm×7.8 mm; 0.01 N H2SO4 mobile phase; 1.0 mL/min flow at 50° C.; 10 μL injection volume; RI detector and UV 210 nm, 20 min analysis time). HPLC Equipment: (Waters 2695 ‘Alliance’ Separations Module, 2410 Refractive Index Detector, 2487 Dual λ Absorbance Detector and Empower Pro Software (Waters Corp, Milford, Mass.).
Solvent Extraction Using Approximately 90% C8-C10 Trialkylamine in Combination with 10% Toluene at 25° C.
(§2) Into a 4-mL glass reactor equipped with magnetic stir bar was placed 1 mL of a mixed solvent containing 90% (volume/volume) Alamine® 336 (Cognis), 10% (volume/volume) toluene. The pH of an aqueous solution of ammonium glycolate (5 wt % to 40 wt %) was adjusted to pH 2 to 3 with concentrated sulfuric acid, then 1 mL of the resulting aqueous solution was added to the reactor. The resulting mixture was stirred for 30 minutes at 25° C.

[2] = Example 23 back extraction with aqueous glycolic acid from loaded solvent (70% trialkylamine/30% toluene), 140° C.; details: 70% C8-C10 trialkylamine/30% toluene, 40 psig nitrogen
Method: as §1
(§3) Back Extraction from a Loaded Solvent of Approximately 70% C8-C10 Trialkylamine in Combination with 30% Toluene
(§4) The vessel was then closed, and the headspace purged with nitrogen. The resulting mixture was stirred for 60 minutes at 140° C. under 40 psig (˜275.8 kPa) nitrogen. The stirring was stopped and the two phases allowed to separate at 140° C., then the organic phase was sampled under pressure through the top dip tube into a Hoke cylinder, and aqueous phases was sampled under pressure through the bottom dip tube into another Hoke cylinder.

[3] = Example 8 reactive solvent extraction, 90% Alamine 336/10% 1-octanol, 25° C.; details: pH 2 to 3
Method: as §1
Solvent Extraction Using Approximately 90% C8-C10 Trialkylamine in Combination with 10% 1-Octanol at 25° C.
as §2, with “1-octanol.” for “toluene.”

[4] = Example 11 reactive solvent extraction, 70% Alamine 336/30% 1-octanol, 75° C.; details: pH 2 to 3
Method: as §1
Solvent Extraction Using Approximately 70% C8-C10 Trialkylamine in Combination with 30% 1-Octanol at 75° C.
as §2, with “70%” for “90%”, “30%” for “10%”, “1-octanol.” for “toluene.”, “75°” for “25°”

[5] = Example 5 reactive solvent extraction, 90% Alamine 336/10% MIBK, 75° C.; details: pH 2 to 3
Method: as §1
Solvent Extraction Using Approximately 90% C8-C10 Trialkylamine in Combination with 10% Methyl Isobutyl Ketone at 75° C.
as §2, with “(Cognis) and” for “(Cognis),”, “methyl isobutyl ketone (MIBK).” for “toluene.”, “75°” for “25°”

[6] = Example 13 reactive solvent extraction, 90% Alamine 336/10% toluene, 75° C.; details: pH 2 to 3
Method: as §1
Solvent Extraction Using Approximately 90% C8-C10 Trialkylamine in Combination with 10% Toluene at 75° C.
as §2, with “75°” for “25°”

[7] = Example 21 back extraction with aqueous glycolic acid from loaded solvent (70% trialkylamine/30% toluene), 120° C.; details: 70% C8-C10 trialkylamine/30% toluene, 40 psig nitrogen
Method: as §1, §3
as §4, with “120°” for “140°”

[8] = initial 3.6 wt % glycolic acid in aqueous phase
[9] = initial 8.5 wt % glycolic acid in aqueous phase
[10] = initial 12.1 wt % glycolic acid in aqueous phase
[11] = initial 16.1 wt % glycolic acid in aqueous phase
[12] = initial 20.6 wt % glycolic acid in aqueous phase
[13] = initial 25.1 wt % glycolic acid in aqueous phase
[14] = initial 29.1 wt % glycolic acid in aqueous phase
[15] = initial 32.8 wt % glycolic acid in aqueous phase
[16] = initial 20.0 wt % glycolic acid in aqueous phase, 14.2 wt % in loaded solvent
[17] = initial 40.0 wt % glycolic acid in aqueous phase, 15.7 wt % in loaded solvent

Partition coefficient (wt % org./wt % aq.) [1, 8]: 1.22
Partition coefficient (wt % org./wt % aq.) [1, 9]: 1.41
Partition coefficient (wt % org./wt % aq.) [1, 10]: 1.46
Partition coefficient (wt % org./wt % aq.) [1, 11]: 1.23
Partition coefficient (wt % org./wt % aq.) [1, 12]: 1.20
Partition coefficient (wt % org./wt % aq.) [1, 13]: 1.26
Partition coefficient (wt % org./wt % aq.) [1, 14]: 1.00
Partition coefficient (wt % org./wt % aq.) [1, 15]: 0.86
Partition coefficient (wt % org./wt % aq.) [2, 16]: 0.44
Partition coefficient (wt % org./wt % aq.) [2, 17]: 0.45
Partition coefficient (wt % org./wt % aq.) [3, 8]: 1.09
Partition coefficient (wt % org./wt % aq.) [3, 9]: 1.03
Partition coefficient (wt % org./wt % aq.) [3, 10]: 1.30
Partition coefficient (wt % org./wt % aq.) [3, 11]: 1.20
Partition coefficient (wt % org./wt % aq.) [3, 12]: 1.20
Partition coefficient (wt % org./wt % aq.) [3, 13]: 1.10
Partition coefficient (wt % org./wt % aq.) [3, 14]: 0.99
Partition coefficient (wt % org./wt % aq.) [3, 15]: 0.82
Partition coefficient (wt % org./wt % aq.) [4, 8]: 0.69
Partition coefficient (wt % org./wt % aq.) [4, 9]: 0.74
Partition coefficient (wt % org./wt % aq.) [4, 10]: 0.64
Partition coefficient (wt % org./wt % aq.) [4, 11]: 0.68
Partition coefficient (wt % org./wt % aq.) [4, 12]: 0.62
Partition coefficient (wt % org./wt % aq.) [4, 13]: 0.61
Partition coefficient (wt % org./wt % aq.) [4, 14]: 0.50
Partition coefficient (wt % org./wt % aq.) [4, 15]: 0.52
Partition coefficient (wt % org./wt % aq.) [5, 8]: 0.75
Partition coefficient (wt % org./wt % aq.) [5, 9]: 0.70
Partition coefficient (wt % org./wt % aq.) [5, 10]: 0.76
Partition coefficient (wt % org./wt % aq.) [5, 11]: 0.73
Partition coefficient (wt % org./wt % aq.) [5, 12]: 0.79
Partition coefficient (wt % org./wt % aq.) [5, 13]: 0.87
Partition coefficient (wt % org./wt % aq.) [5, 14]: 0.84
Partition coefficient (wt % org./wt % aq.) [5, 15]: 0.86
Partition coefficient (wt % org./wt % aq.) [6, 8]: 0.51
Partition coefficient (wt % org./wt % aq.) [6, 9]: 0.58
Partition coefficient (wt % org./wt % aq.) [6, 10]: 0.67
Partition coefficient (wt % org./wt % aq.) [6, 11]: 0.63
Partition coefficient (wt % org./wt % aq.) [6, 12]: 0.65
Partition coefficient (wt % org./wt % aq.) [6, 13]: 0.73
Partition coefficient (wt % org./wt % aq.) [6, 14]: 0.75
Partition coefficient (wt % org./wt % aq.) [6, 15]: 0.75
Partition coefficient (wt % org./wt % aq.) [7, 16]: 0.54
Partition coefficient (wt % org./wt % aq.) [7, 17]: 0.54
SMILES: O=C(O)CO [glycolic acid]
